Experimental data from US20240016900A1, “COLLAGEN PEPTIDE-BASED MEDICAMENT COMPOSITIONS AND USES THEREOF” (SUSTAIN HOLDINGS, LLC, priority 2022, published 2024).

How the values were obtained:
[1] = cited from earlier work; for melting temperature of a triple helix: Sakakibara et al. 1973
[2] = tested on: glial lamina at the optic nerve head; assay: AFM measurement of Young's Modulus and morphology in glial lamina of mouse eye explants after MMP1 treatment, with or without CMP; conditions: MMP1 alone, 5 μg/ml for 30 minutes, compared with untreated baseline
Description: To conduct these studies, mouse eyes were explanted and thin sectioned as described in Example 2 above, and sections of the glial lamina and the peripapillary sclera were examined by atomic force microscopy (AFM).
To increase the statistical significance of these studies, AFM was used to make Young's Modulus measurements across a large number of points in multiple individual locations in a given sample of glial lamina, as was done in Example 2 for peripapillary sclera.

peripapillary sclera = assay: Fluorescence microscopy of disrupted (RCHP) and intact (Col1) collagen in explants, peripapillary sclera; parameters: species or system mouse; conditions: MMP1 alone 30 minutes
Procedure: (§1) To examine the distribution of disrupted and intact collagen in such explants, samples prepared as above were treated with DAPI (to localize cell nuclei), a fluorescently labeled antibody against type I collagen (“Col1”), and a Cy3-labeled collagen hybridizing peptide (“RCHP”) which binds only to areas of disrupted collagen.

[3] = tested on: peripapillary sclera in mouse eyes; assay: AFM measurement of Young's Modulus in mouse peripapillary sclera explants after MMP treatment, with or without CMP; conditions: MMP1 alone, 50 μg/ml for 30 minutes, compared with untreated baseline
Description: Therefore, to examine the possible therapeutic effects of CMPs of the invention in treating myopia, studies were designed to test the effects of certain CMPs conjugates in a model of the in vivo setting—an ex vivo study of the collagen matrix in the peripapillary sclera in mouse eyes. To conduct these studies, mouse eyes were explanted and thin sectioned, and sections of the peripapillary sclera (the scleral area adjacent to the optic nerve head) were examined by atomic force microscopy (AFM).
To examine the impact of matrix metalloproteinase (MMP) treatment, with or without subsequent CMP treatment, on the stiffness of the mouse peripapillary scleral explants, samples were treated with MMP (50 μg/ml for 30 minutes), followed by either a PBS washout or by treatment with a CMP-containing formulation of the invention for 60 minutes.
To increase the statistical significance of these studies, AFM was used to make Young's Modulus measurements across a large number of points in multiple individual locations in a given sample of peripapillary sclera.

Human type I collagen = Human type I collagen (Homo sapiens, UniProt P02452+P08123); assay: AFM of type I collagen plated on substrates, MMP1 with or without CMP13; assay type: biochemical; conditions: collagen 10 μg/ml; MMP1 alone 60 ng/ml for 30 minutes
Description: In untreated (baseline) samples, extensive and multilamellar networks of collagen fibers, fibrils and bundles could be readily observed (FIGS. 15A, 15B).

glial lamina = assay: Fluorescence microscopy of disrupted (RCHP) and intact (Col1) collagen in explants, glial lamina; parameters: species or system mouse; conditions: MMP1 alone 30 minutes
Procedure: as §1

Sequence of Human type I collagen (P02452 162-1218 limits assumed): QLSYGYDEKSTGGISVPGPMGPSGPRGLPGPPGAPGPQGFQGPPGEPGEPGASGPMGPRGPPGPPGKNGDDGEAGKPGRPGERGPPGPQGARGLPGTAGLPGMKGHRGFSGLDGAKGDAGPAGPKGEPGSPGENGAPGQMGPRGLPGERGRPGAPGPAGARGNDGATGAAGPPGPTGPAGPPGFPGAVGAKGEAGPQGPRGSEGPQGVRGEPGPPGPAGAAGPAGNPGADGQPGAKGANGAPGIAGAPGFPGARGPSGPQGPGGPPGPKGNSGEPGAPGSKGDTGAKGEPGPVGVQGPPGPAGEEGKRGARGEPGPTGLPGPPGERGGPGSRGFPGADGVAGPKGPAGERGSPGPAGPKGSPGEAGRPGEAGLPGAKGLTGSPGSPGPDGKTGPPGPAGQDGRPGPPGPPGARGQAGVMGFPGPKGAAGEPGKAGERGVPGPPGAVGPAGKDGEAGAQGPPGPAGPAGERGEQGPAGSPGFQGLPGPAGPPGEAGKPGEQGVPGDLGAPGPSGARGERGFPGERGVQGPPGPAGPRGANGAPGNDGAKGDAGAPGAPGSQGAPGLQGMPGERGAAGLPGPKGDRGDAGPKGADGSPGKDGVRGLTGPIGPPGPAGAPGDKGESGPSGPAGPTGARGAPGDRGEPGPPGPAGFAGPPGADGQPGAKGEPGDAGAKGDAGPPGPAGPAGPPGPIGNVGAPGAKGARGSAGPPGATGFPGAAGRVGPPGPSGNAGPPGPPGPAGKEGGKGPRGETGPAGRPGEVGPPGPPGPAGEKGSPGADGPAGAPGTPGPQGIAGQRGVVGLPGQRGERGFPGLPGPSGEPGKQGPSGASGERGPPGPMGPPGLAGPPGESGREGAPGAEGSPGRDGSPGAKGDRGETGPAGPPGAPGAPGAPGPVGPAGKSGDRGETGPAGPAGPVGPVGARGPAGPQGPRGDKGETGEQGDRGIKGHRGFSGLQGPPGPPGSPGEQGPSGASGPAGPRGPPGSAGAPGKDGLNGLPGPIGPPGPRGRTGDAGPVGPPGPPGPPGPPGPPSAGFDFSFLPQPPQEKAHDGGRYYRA
Sequence of Human type I collagen (P08123 80-1119 limits assumed): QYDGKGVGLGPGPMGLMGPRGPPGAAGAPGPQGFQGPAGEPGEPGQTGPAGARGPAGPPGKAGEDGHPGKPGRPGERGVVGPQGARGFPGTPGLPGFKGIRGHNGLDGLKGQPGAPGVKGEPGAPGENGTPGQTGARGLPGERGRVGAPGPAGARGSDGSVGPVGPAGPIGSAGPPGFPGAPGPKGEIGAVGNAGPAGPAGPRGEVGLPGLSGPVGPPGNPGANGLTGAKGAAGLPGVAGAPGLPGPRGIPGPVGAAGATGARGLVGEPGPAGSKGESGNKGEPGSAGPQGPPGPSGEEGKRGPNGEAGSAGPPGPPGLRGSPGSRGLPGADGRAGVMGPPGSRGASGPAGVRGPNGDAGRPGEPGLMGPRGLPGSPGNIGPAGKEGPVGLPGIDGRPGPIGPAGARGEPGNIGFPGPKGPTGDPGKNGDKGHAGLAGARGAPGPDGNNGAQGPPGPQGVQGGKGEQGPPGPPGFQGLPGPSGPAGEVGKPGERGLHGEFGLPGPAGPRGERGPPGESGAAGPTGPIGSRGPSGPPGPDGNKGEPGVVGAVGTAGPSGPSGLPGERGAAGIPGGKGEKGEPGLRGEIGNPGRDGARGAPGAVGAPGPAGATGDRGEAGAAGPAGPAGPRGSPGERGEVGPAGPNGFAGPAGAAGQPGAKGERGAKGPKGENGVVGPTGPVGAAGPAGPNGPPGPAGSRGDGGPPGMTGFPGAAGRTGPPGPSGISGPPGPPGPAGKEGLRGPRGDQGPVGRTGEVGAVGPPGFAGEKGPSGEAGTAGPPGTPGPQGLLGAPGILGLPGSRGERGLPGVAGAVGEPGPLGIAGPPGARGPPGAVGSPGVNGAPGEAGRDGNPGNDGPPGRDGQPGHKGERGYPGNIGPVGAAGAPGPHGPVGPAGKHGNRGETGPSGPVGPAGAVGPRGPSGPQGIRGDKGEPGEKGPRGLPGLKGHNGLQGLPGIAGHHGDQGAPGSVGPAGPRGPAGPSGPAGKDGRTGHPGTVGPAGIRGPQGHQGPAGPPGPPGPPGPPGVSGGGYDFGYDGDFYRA

Substance	melting temperature of a triple helix [1] [°C]	rate at which chains fold into a triple helix ([1]; relative to (ProProGly)10, Chopra and Ananthanarayanan 1982)	Young's Modulus (glial lamina stiffness) [2]	Young's Modulus (glial lamina stiffness) ([2]; listed as MMP)	disrupted collagen (RCHP) (peripapillary sclera)	Young's Modulus (scleral stiffness) [3]	Young's Modulus (scleral stiffness) ([3]; listed as MMP)	collagen fiber/fibril networks on substrate (AFM) (Human type I collagen)	disrupted collagen (RCHP) (glial lamina)	intact collagen (Col1) (glial lamina)
(ProHypGly)10	58	substantially greater	–	–	–	–	–	–	–	–
(ProProGly)10	24	–	–	–	–	–	–	–	–	–
MMP1: matrix metalloproteinase 1, used to disrupt collagen in explants and on substrates	–	–	significant decrease in Young's Modulus	adversely affecting the stiffness of the glial lamina	large amount of disrupted collagen	significant decrease in Young's Modulus	significantly reduced the scleral stiffness	substantial amount of disorganized collagen and little remaining fiber/fibril formation	large amount of disrupted collagen	nearly devoid of intact collagen
